This is an account of results in US20260053942A1, “STING AGONIST IMMUNOSTIMULATORY ANTIBODY DRUG CONJUGATES” (ASTELLAS PHARAMA INC., priority 2024, published 2026).

Molecules are shown by their SMILES.

What all share (format): cell-based, human
For one experiment, the system named is NCI-H460 (Trop2-). As to the kind of experiment: Cell proliferation (cell killing) assay, Cell Titer-Glo, 120 hours. On the procedure:
The cytotoxicity of the ADCs, iSACs and iADCs was measured in a cell proliferation assay. TROP2 positive NCI-H292, NCI-H441 cells and TROP2 negative NCI-H460 and NCI-H1703 cells were obtained from ATCC (American Type Culture Collection) and maintained in DMEM/F12 (1:1), high glucose (Corning) supplemented with 10% heat-inactivated fetal bovine serum (Thermo Scientific), 2 mM glutamax (Thermo Scientific), and 1× Penicillin/Streptomycin (Corning).
Cells were collected and counted by the Vi-CELL Cell Viability Analyzers (Beckman Coulter). A total of 7500 cells in a volume of 50 uL were seeded in each well of a 96-well flat bottom white Polystyrene plate. Test articles were diluted at 2× final concentration in the cell culture medium and 50 uL was added into each treatment well. Assay plates were cultured at 37° C. in a CO2 incubator for 120 hours. For cell viability measurement, 60 μL of Cell Titer-Glo® reagent (Promega Corp. Madison, WI) was added into each well, and plates were processed as per product instructions. Relative luminescence was measured on an ENVISION® plate reader (Perkin-Elmer; Waltham, MA). Relative luminescence readings were converted to % viability using untreated cells as controls. Data was fitted with non-linear regression analysis, using log(inhibitor) vs. response-variable slope, 4 parameter fit equation using GraphPad Prism (GraphPad v 5.00, Software; San Diego, CA).
A general note: Cellular ATP, detected with luciferase, serves as a proxy for viable cell number.

A further experiment has as its system NCI-H292 cells. Nature of the experiment: Immunogenic cell death: HMGB1 release in supernatant (sandwich ELISA), 48 hours. As to the method: Immunogenic cell death elicited by the TROP2 ADC, iSAC, iADCs and exatecan were measured by cell surface translocate of calreticulin and release of HMGB1 in the cell culture supernatant. Briefly, TROP2 positive cell line NCI-H292 were seeded into a 96-well flat bottom plate 4 hours prior to the initialization of the assay. Test articles were formulated at a 2× starting concentration in cell culture medium, and samples were serial diluted (1:3) under sterile conditions and added onto the cells in duplicates. After incubation at 37° C. in a CO2 incubator for 48 hours, the cell supernatant was collected for measuring HMGB1 and the adherent cells were collected for calreticulin expression on the cell surface.
HMGB1 released in the supernatant was assessed via sandwich ELISA using mouse anti-human HMGB1 clone 2F6 (Sigma-Aldrich) as the capture, polyclonal rabbit anti-human HMGB1 (Abcam) as secondary, and polyclonal goat anti-rabbit IgG HRP as the detection antibody. The HMGB1 concentrations in the cell culture medium were calculated based a standard curve built on commercially available recombinant human HMGB1 (R&D Systems).
(In general: In an ELISA, binding on a coated surface is turned into a signal by an enzyme label.)

Another experiment concerns NCI-H441 cells. As to the kind of experiment: NCI-H441/PBMC co-culture (title of Table 16): tumor cell killing. As to the method:
The ability of different TROP2 iADCs to induce cancer cell killing, immune activation, and cytokine release was evaluated in an in vitro co-culture assay with human cancer cells and human PBMCs.
Residual RBCs were removed using ACK lysis buffer (Gibco) for 10 minutes, followed by DPBS wash. Isolated PBMCs were counted, resuspended in freezing medium (Sigma) and stored in a freezing vessel at −80° C. for 24 hours before being transferred to vapor-phase liquid nitrogen for long-term storage.
For the co-culture assay, cancer cells were plated on transparent flat bottom polystyrene plates and allowed to attach overnight. The next day, serially diluted (1:4) test articles were formulated at 3× starting concentration in complete RPMI media and added onto each well. Human PBMCs were thawed and resuspended in RPMI supplemented with 10% heat-inactivated fetal bovine serum from Hyclone, 1% Penicillin/Streptomycin and 2 mM/L-glutamax. PBMCs were then added into the same well at a final ratio of PBMCs:cancer cells=30:1. Plates were incubated for 2 or 3 days at 37° C. with 5% CO2 in a cell culture incubator.
On the day of sample collection, cell culture supernatants were collected and stored at −80° C. until cytokine release analyses were performed. […] Cells were then washed with FACS buffer again and read on Cytek flow cytometer. […]

For orientation: EC50 means the midpoint of the concentration-response curve. As usually defined, the IC50 is the concentration that gives 50% inhibition.

With `CC[C@@]1(O)C(=O)OCc2c1cc1n(c2=O)Cc2c-1nc1cc(F)c(C)c3c1c2[C@@H](N)CC3` [Exatecan, exatecan, reference compound], the Span cell killing with NCI-H460 (Trop2-) is given as 83%. Further, the EC50 was determined as 0.97 nM in the experiment with NCI-H460 (Trop2-) (Homo sapiens) and 2.08 nM in the experiment on NCI-H292 cells (Homo sapiens, supernatant, read-out: HMGB-1 Release EC50). Moreover, the “release of HMGB1 into the cell culture supernatant” value in the experiment on NCI-H292 cells was around 70 ng/mL. In addition, in the experiment with NCI-H292 cells (supernatant), the “HMGB-1 Release Span” value worked out at 55 ng/mL. For the same compound, the IC50 with NCI-H441 cells (Homo sapiens, tumor cell killing, read-out: Cancer Cell Count IC50) was determined as 0.44 nM. Also, the “Cancer Cell Count Span” value in the experiment on NCI-H441 cells (Span = Top minus Bottom of dose response curve) is reported as 5,749 Cell Count.
